For one assay, the system named is endothelin constriction. Kind of assay: Inhibitory effects on endothelin induced contraction in porcine coronary arteries (LAD rings). The settings on record: Sus scrofa, endothelin 3×10^-9 M, read-out: Inhibition (%) of maximum contraction by endothelin; for inhibition at 10 µM: 10^-5 M; for inhibition at 1 µM: 10^-6 M. The class given is cell-based. The method, then:
Inhibitory Effects of the Compounds on […] Induced Contraction in Porcine Coronary Arteries
Ring preparation of porcine left arterior descending coronary arteries (LAD) were suspended in 20 ml baths containing Krebs-Henseleit solutions at 37° C. gassed with 97% O2 -3% CO2. Endothelin (3×10^-9 M) was added to the baths, and after the constriction reached the steady state, the compounds at concentrations of […] and 10^-5 M (Examples 45, 48 and 127) were added to the bath. Then, the relaxation activity was examined. The relaxation activity of the compounds was expressed as % inhibition from the maximum contraction by endothelin.

For a further assay, the system named is Interleukin 1 Production. The experiment in a line: Inhibitory effects on interleukin 1 production stimulated by lipopolysaccharide in rat intraperitoneal macrophage (LAF assay). The settings on record: LPS 50 ug/ml; for inhibition at 10 µM: 10^-5 Molar; for inhibition at 1 µM: 10^-6 Molar. The assay is classed as cell-based, Male Sprague-Dawley rats. The method, then:
Inhibitory Effects on Interleukin 1 Production Simulated by Lipopolysaccharide in the Rat Intraperitoneal Macrophage
Male Sprague-Dawley rats (8 weeks old, body weight: 300 g, Clea Japan) were killed by exsanguination under etherization. 20 ml of a culture solution (RPMI-1640) was intraperitoneally administered to each rat, and the abdominal part thereof was massaged, followed by abdominal section to recover the culture solution. After centrifugation of the solution, the cell pellet obtained was resuspended in 4 ml of the culture solution, superposed on 5 ml of Ficoll-Paque solution (lymphocyte separation medium, Wako Junyaku, Japan), and centrifuged at 450 g at room temperature for 15 minutes. The cells located in the boundary between the Ficoll-Paque solution and the culture solution were collected and washed 3 times with the culture solution. The resulting cells were suspended in the culture solution again, which was used as a macrophage-suspended solution (3×10^5 cells/ml).
Interleukin 1 was produced in the following manner. Macrophage (3×10^5 cells) in a 96-well microtiter plate was preincubated in a CO 2 incubator for 1 hour with each of the compounds shown in Table 5. Then, 50 ug/ml of lipopolysaccharide (Escherichia coli 0111 B4, Difco) was added thereto. After cultivation was further continued for 20 hours, the activity of interleukin 1 in the culture supernatant was measured by an LAF (lymphocyte activating factor) assay. Experiments were carried out in a triplicate manner.
The LAF assay was conducted as the following. Thymocytes (1-1.5×10^6 cells) of C3H/HeJ mice were added to phytohemagglutinin (PHA) P (diluted 1/2000; Difico) and the macrophage culture solution diluted 1/10 or 1/30, and cultivated in a CO2 incubator. After 48 hours, ^3 H-thymidine of 0.5 uCi was added thereto and cultivation was further continued for 24 hours. Then, the amount of ^3 H-thymidine entrapped in the thymocytes was measured. The radioactivity entrapped in the thymocytes was taken as the amount of interleukin-1.
We conducted this process partly modifying the method of R. C. Newton et al. [J. Leukocyte, Biology 39, 299-3111 (1986)].

A further assay relates to NGF. The experiment in a line: Promoting effects on synthesis and secretion of NGF in glia cells (C6 glioma), enzyme immuno assay. The assay is classed as cell-based. The following applies: 24 hours, read-out: Promoting Activity (%) of NGF synthesis and secretion (relative to control = 100); for activity at 30 µM: 3 × 10^-5 M; for activity at 3 µM: 3 × 10^-6 M. The method, then: Promoting Effects of the Compounds on Synthesis and Secretion of NGF in Glia Cells
A 48 well-plate was seeded with glia strains cells (C6 glioma) at a rate of 2.5×10^4 cells/well, which was cultivated in Dulbecco's modified eagle's medium (DMEM) containing 10% fetal calf serum. When the cells became confluent (2 to 3 days), each of the following compounds of the present invention was added thereto, and it was cultivated in serum free-DMEM for 24 hours. NGF secreted in the culture supernatant was assayed by enzyme immuno assay. An amount of NGF is shown in a relative value to 100, the value of control (without addition of the compound). The compounds were added in a solution of DMSO, at an amount of 1/100 (V/V) of a medium (V/V). In a control, DMSO alone was added.

In assay [1] the test system is Feverescence of Rat Due to Lipopolvsaccharide (LPS). Kind of assay: Antipyretic activity in LPS-induced febrile rats. The class given is in vivo, Male JcL;SD rats. The following applies: p.o. On the procedure:
Activity of Depressing Feverescence of Rat Due to Lipopolvsaccharide (LPS)
Male JcL;SD rats 7 weeks old (body weight: about 250 g, Clea Japan) were used. Each group had 6 rats. The rats were reared in individual cages from the day before, and then the basal body temperature was measured in the rectums using a digital thermometer (Model D221-6, Takara Kogyo) 3 times at intervals of 1 hour. After the third measurement of the body temperature, the compounds shown in Table 6 were orally administered in a volume of 1 ml per 100 g of body weight. LPS (Escherichia coli 0111 B4, Difco) was administered from their tail veins in an amount of 0.2 ml per 100 g of body weight 1 hour after the administration of the compounds.
The body temperature was measured from 3 to 5 hours after that at intervals of 1 hour. The antipyretic activity of the compounds was evaluated by the difference in body temperature between a control group and a compound-administered group. Statistical analysis was carried out by the Dunnett's test.

From US5082838A, “Sulfur-containing fused pyrimidine derivatives, their production and use” (Takeda Chemical Industries, Ltd., priority 1989, dated 1992) come the findings set out here.

Broadly, the inhibition is the drop in the measured response relative to a control, in per cent. Turning to `CCCCn1c(=O)c(-c2ccccc2)c2n(c1=O)CCC[S+]2[O-]` (stereo not shown) [Example 45], in the assay with endothelin constriction, the inhibition at 10 µM is 100% and the inhibition at 1 µM amounted to 6.2%. Also, in the assay on Interleukin 1 Production, the inhibition at 10 µM was found to be 75% and testing at 1 µM gave an inhibition of 30%.
The molecule `CCCCn1c(=O)c(-c2ccccc2)c2n(c1=O)CCS2(=O)=O` [Example 62] gave an inhibition at 10 µM in the assay with Interleukin 1 Production of 96%.
Regarding `O=c1c(-c2ccccc2)c2n(c(=O)n1-c1ccccc1)CCCS2(=O)=O` [Example 67], in the assay on Interleukin 1 Production, the inhibition at 10 µM is 98% and the inhibition at 1 µM was 10%.
On to `O=c1c(-c2ccccc2)c2n(c(=O)n1-c1ccccc1)CCS2(=O)=O` [Example 63], for which at 10 µM the inhibition in the assay with Interleukin 1 Production was 98%.
Take `CCCn1c(=O)c(-c2ccccc2)c2n(c1=O)CCCS2` [Example 1, 9-Phenyl-7-propyl-3,4-dihydro-2H,6H-pyrimido[6,1-b][1,3] thiazine-6,8(7H)-dione]: in the assay on NGF, the activity at 30 µM was found to be 117 ± 34% and the activity at 3 µM was determined as 168 ± 6%.
`CCCn1c(=O)c(-c2ccccc2)c2n(c1=O)CCS2(=O)=O` [Example 61]: in the assay on NGF, the activity at 30 µM amounted to 109 ± 12% and the activity at 3 µM is 177 ± 8%.
Molecule `Cn1c(=O)c(-c2ccccc2)c2n(c1=O)CCS2(=O)=O` [Example 59] had an inhibition at 10 µM with Interleukin 1 Production of 89%.
For the molecule `CCCCCn1c(=O)c(-c2ccccc2)c2n(c1=O)CCC[S+]2[O-]` (stereo not shown) [Example 50], in the assay on Interleukin 1 Production, the inhibition at 10 µM was found to be 98% and the inhibition at 1 µM stood at 58%.
Take `Cn1c(=O)c(-c2ccccc2)c2n(c1=O)CCCS2(=O)=O` [Example 64]: at 10 µM the inhibition in the assay on Interleukin 1 Production was 100%. Besides, the inhibition at 1 µM in the assay on Interleukin 1 Production is 60%. Further, the entries for the “Antipyretic Activity (difference in body temperature vs. control group)” value in assay [1] (25 mg/kg), in assay [1] (50 mg/kg) and in assay [1] (100 mg/kg) were -0.68 °C, -0.82 °C and -1.13 °C, respectively.
Regarding `CCCC/C=C/c1c2n(c(=O)n(CCC)c1=O)CCS2` [Example 106], the “Antipyretic Activity (difference in body temperature vs. control group)” value in assay [1] (100 mg/kg) was -0.53 °C.
For `O=c1c(-c2ccccc2)c2n(c(=O)n1Cc1ccccc1)CC=CS2` [Example 129, 7-Benzyl-9-phenyl-4H,6H-pyrimido[6,1-b][1,3]thiazine-6,8(7H)-dione], in the assay on NGF, the activity at 30 µM stood at 117 ± 6% and the activity at 3 µM worked out at 197 ± 9%.
For the molecule `CCCCn1c(=O)c(-c2ccccc2)c2n(c1=O)CCCS2` [Example 23], the “Antipyretic Activity (difference in body temperature vs. control group)” value in assay [1] (100 mg/kg) was -0.72 °C.
Take `CCn1c(=O)c(-c2ccccc2)c2n(c1=O)CCC[S+]2[O-]` (stereo not shown) [Example 43]: testing at 10 µM in the assay with Interleukin 1 Production gave an inhibition of 52%. Besides, in assay [1] (100 mg/kg), the “Antipyretic Activity (difference in body temperature vs. control group)” value was -0.70 °C.
As to `CCCn1c(=O)c(-c2ccccc2)c2n(c1=O)CCCS2(=O)=O` [Example 58, 1,1-Dioxo-9-phenyl-7-propyl-3,4-dihydro-2H,6H-pyrimido [6,1-b][1,3]thiazine-6,8(7H)-dione], in the assay with NGF, the activity at 30 µM came out at 140 ± 2% and the activity at 3 µM was 164 ± 25%.
`CCCn1c(=O)c(-c2ccccc2)c2n(c1=O)CC[S+]2[O-]` (stereo not shown) [Example 48]: in the assay on endothelin constriction, the inhibition at 10 µM worked out at 86.6% and the inhibition at 1 µM is 24.6%.
Regarding `CCn1c(=O)c(-c2ccccc2)c2n(c1=O)CCCS2` [Example 17], the inhibition at 10 µM in the assay on Interleukin 1 Production is 93%.
In the assay with Interleukin 1 Production, `CCn1c(=O)c(-c2ccccc2)c2n(c1=O)CCCS2(=O)=O` [Example 65] returned an inhibition at 10 µM of 100% and an inhibition at 1 µM of 40%. Besides, the “Antipyretic Activity (difference in body temperature vs. control group)” value in assay [1] (100 mg/kg) was -0.95 °C.
For `O=c1c(-c2ccccc2)c2n(c(=O)n1Cc1ccccc1)CCCS2` [Example 36, 7-benzyl-9-phenyl-3,4-dihydro-2H,6H-pyrimido[6,1-b][1,3]thiazine-6,8(7H)-dione], in the assay with NGF, the activity at 30 µM is 102 ± 2% and the activity at 3 µM is 240 ± 16%.
For the molecule “9-Formyl-7-propyl-3,4-dihydro-2H,6H-pyrimido[6,1-b][1,3]thiazine-6,8(7H)-dione [Example 101]”, in assay [1] (100 mg/kg), the “Antipyretic Activity (difference in body temperature vs. control group)” value was -0.87 °C.
